Laboratory results: patent US20220160647A1, “TRANSDERMAL DRUG DELIVERY DEVICE/TRANSDERMAL PATCH AND OTHER APPLICATIONS OF EMULSION FORMULATION” (First Necessity, LLC, priority 2020, published 2022)

Columns and labels:
[1] = Solubility of CBD in water, MCT oil and the liposomal polymeric emulsion; format: physicochemical
Description: (E. Samara and M. Bialer, Drug Metab. Dispos., 16 (6) 875-879 (1988). This provides a maximum weight/weight percent of approximately 0.07%.
In certain embodiments of the present teaching, hyaluronic acid may be present in the polymeric-emulsion disclosed herein. Such embodiments also include the presence of water. […] In the present case, this value was slightly exceeded in testing the liposomal polymeric emulsion set forth herein in combination with hyaluronic acid, water and MCT as the hydrophobic component. […] That said, the polymeric liposomal emulsion set forth herein retains the ability to dissolve water soluble compounds even when incorporating oil-soluble compounds at a relatively high percentage or amount.

[2] = accepted value (Samara and Bialer 1988); cited from earlier work
[3] = liposomal polymeric emulsion with hyaluronic acid, water and MCT

In the case of C=C(C)[C@@H]1CCC(C)=C[C@H]1c1c(O)cc(CCCCC)cc1O [CBD, cannabidiol], the “concentration of CBD in stable solution” value ([1]; MCT oil) is reported as 400 mg/mL, the “concentration of CBD in stable solution, by weight” value ([1]; MCT oil) is reported as 40 % by weight and the “increase in CBD solubility compared to base MCT oil” value ([1]; liposomal polymeric emulsion vs base MCT oil) is reported as 1.125 fold. The “increase in CBD solubility compared to water” value ([1]; liposomal polymeric emulsion vs water) was “greater than 500 fold”, the “concentration of CBD in solution” value [1, 3] was 450 mg/mL and the “concentration of CBD in solution, by weight” value [1, 3] was 45 % by weight. The “maximum weight/weight percent of CBD in water” value ([1]; pure water, worked out from 0.7 μg per mL) was “approximately 0.07%” and the “solubility of CBD in pure water” value [2] was 0.7 μg per mL.
